Literature values, collected in patent publication US12472264B2, “Cell-penetrating peptides” (Oxford University Innovation Limited, priority 2018, dated 2025).

Test system: exon 51
Conditions: background statement on FDA accelerated approval, September 2016

eteplirsen
levels of dystrophin restoration: approximately 1 % of normal dystrophin levels
